Measurements reported in patent US4497802A, “N-Acyl glycopeptide derivatives” (Eli Lilly and Company, priority 1983, dated 1985).

How the values were obtained:
[1] = system: Staphylococcus aureus X1.1; test: MIC, standard agar-dilution assay; assay type: cell-based; conditions: Staphylococcus aureus X1.1; agar dilution
[2] = system: Staphylococcus aureus X400; test: MIC, standard agar-dilution assay; assay type: cell-based; conditions: Staphylococcus aureus X400, methicillin-resistant strain
Streptococcus pneumoniae = test: ED50 in experimentally infected mice; assay type: in vivo; conditions: mice infected with Streptococcus pneumoniae; administered subcutaneously 1 and 4 hours postinfection
Experimental: (§1) Some of the derivatives of this invention have shown in vivo antimicrobial activity against experimentally-induced infections in laboratory animals. When two doses of test compound were administered to experimentally infected mice, the activity observed was measured as an ED50 value [effective dose in mg/kg to protect 50% of the test animals: see Warren Wick, et al., J. Bacteriol. 81, 233-235 (1961)].
(§2) ^a mg/kg × 2; administered subcutaneously 1 and 4 hours

Streptococcus pyogenes = test: ED50 in experimentally infected mice; assay type: in vivo; conditions: mice infected with Streptococcus pyogenes; administered subcutaneously 1 and 4 hours postinfection
Experimental: as §1, §2

[3] = system: Streptococcus Group D X66; test: MIC, standard agar-dilution assay; assay type: cell-based; conditions: Streptococcus Group D X66; agar dilution
[4] = system: Haemophilus influenzae C.L.; test: MIC, standard agar-dilution assay; assay type: cell-based; conditions: ampicillin-sensitive strain
Streptococcus Group 9960 = test: MIC, standard agar-dilution assay; assay type: cell-based; conditions: Streptococcus Group 9960; agar dilution
[5] = system: Streptococcus pyogenes C203; test: MIC, standard agar-dilution assay; assay type: cell-based; conditions: Streptococcus pyogenes C203; agar dilution
[6] = system: Staphylococcus epidermidis EPI1; assay type: cell-based; conditions: Staphylococcus epidermidis EPI1; agar dilution
[7] = system: Staphylococcus aureus V41; test: MIC, standard agar-dilution assay; assay type: cell-based; conditions: Staphylococcus aureus V41, penicillin-resistant strain; agar dilution
[8] = system: Staphylococcus aureus S13E; assay type: cell-based; conditions: agar dilution
Staphylococcus aureus = test: ED50 in experimentally infected mice; assay type: in vivo; conditions: mice infected with Staphylococcus aureus; administered subcutaneously 1 and 4 hours postinfection
[9] = system: Staphylococcus epidermidis EPI2; test: MIC, standard agar-dilution assay; assay type: cell-based
[10] = system: Haemophilus influenzae 76; test: MIC, standard agar-dilution assay; assay type: cell-based; conditions: Haemophilus influenzae 76, ampicillin-resistant strain
[11] = system: Streptococcus pneumoniae Park I; assay type: cell-based; conditions: agar dilution

N--(3,5-dichlorobenzoyl)A41030A [Example 22]
MIC [1]: 0.125 µg/mL
MIC [2]: 0.25 µg/mL
ED50 (Streptococcus pneumoniae): 41 mg/kg × 2
ED50 (Streptococcus pyogenes): > 10 mg/kg × 2
MIC [3]: 0.5 µg/mL
MIC [4]: 16 µg/mL
MIC (Streptococcus Group 9960): 0.5 µg/mL
MIC [5]: 0.5 µg/mL
MIC [6]: 0.125 µg/mL
MIC [7]: 0.125 µg/mL
MIC [8]: 0.25 µg/mL
ED50 (Staphylococcus aureus): < 0.31 mg/kg × 2
MIC [9]: 0.25 µg/mL
MIC [10]: 8 µg/mL
MIC [11]: 0.5 µg/mL

N--(L-phenylalanyl)A41030A [Example 17]
MIC [1]: 0.125 µg/mL
MIC [2]: 0.125 µg/mL
ED50 (Streptococcus pneumoniae): 8.52 mg/kg × 2
ED50 (Streptococcus pyogenes): > 10 mg/kg × 2
MIC [3]: 0.5 µg/mL
MIC [4]: 8 µg/mL
MIC (Streptococcus Group 9960): 0.125 µg/mL
MIC [5]: 0.125 µg/mL
MIC [6]: 0.125 µg/mL
MIC [7]: 0.125 µg/mL
MIC [8]: 0.125 µg/mL
ED50 (Staphylococcus aureus): 0.08 mg/kg × 2
MIC [9]: 0.125 µg/mL
MIC [10]: 16 µg/mL
MIC [11]: 0.125 µg/mL

N--(lauroyl)A41030A [Example 20]
MIC [1]: 0.5 µg/mL
MIC [2]: 1 µg/mL
ED50 (Streptococcus pneumoniae): > 10 mg/kg × 2
ED50 (Streptococcus pyogenes): > 10 mg/kg × 2
MIC [3]: 0.5 µg/mL
MIC [4]: 32 µg/mL
MIC (Streptococcus Group 9960): 0.5 µg/mL
MIC [5]: 1 µg/mL
MIC [6]: 0.5 µg/mL
MIC [7]: 0.5 µg/mL
MIC [8]: 0.5 µg/mL
ED50 (Staphylococcus aureus): 0.6 mg/kg × 2
MIC [9]: 0.5 µg/mL
MIC [10]: 32 µg/mL
MIC [11]: 1 µg/mL

N--(nonanoyl)A41030A [Example 19]
MIC [1]: 0.125 µg/mL
MIC [2]: 0.25 µg/mL
ED50 (Streptococcus pneumoniae): > 10 mg/kg × 2
ED50 (Streptococcus pyogenes): > 10 mg/kg × 2
MIC [3]: 0.25 µg/mL
MIC [4]: 32 µg/mL
MIC (Streptococcus Group 9960): 0.25 µg/mL
MIC [5]: 0.5 µg/mL
MIC [6]: 0.125 µg/mL
MIC [7]: 0.25 µg/mL
MIC [8]: 0.25 µg/mL
ED50 (Staphylococcus aureus): < 0.31 mg/kg × 2
MIC [9]: 0.25 µg/mL
MIC [10]: 16 µg/mL
MIC [11]: 0.5 µg/mL

N--(nonanoyl)A47934 [Example 25]
MIC [1]: 0.125 µg/mL
MIC [2]: 0.25 µg/mL
ED50 (Streptococcus pneumoniae): > 10 mg/kg × 2
ED50 (Streptococcus pyogenes): > 10 mg/kg × 2
MIC [3]: 0.25 µg/mL
MIC [4]: 8 µg/mL
MIC (Streptococcus Group 9960): 0.25 µg/mL
MIC [5]: 0.5 µg/mL
MIC [6]: 0.06 µg/mL
MIC [7]: 0.125 µg/mL
MIC [8]: 0.125 µg/mL
ED50 (Staphylococcus aureus): < 0.31 mg/kg × 2
MIC [9]: 0.125 µg/mL
MIC [10]: 8 µg/mL
MIC [11]: 0.25 µg/mL

N--[4-(N,N--dimethylamino)benzoyl]A41030A [Example 18]
MIC [1]: 0.25 µg/mL
MIC [2]: 0.5 µg/mL
ED50 (Streptococcus pneumoniae): > 10 mg/kg × 2
ED50 (Streptococcus pyogenes): > 10 mg/kg × 2
MIC [3]: 1 µg/mL
MIC [4]: -- (Compound not active at less than 128 mcg/ml)
MIC (Streptococcus Group 9960): 2 µg/mL
MIC [5]: 1 µg/mL
MIC [6]: 0.25 µg/mL
MIC [7]: 0.5 µg/mL
MIC [8]: 0.25 µg/mL
ED50 (Staphylococcus aureus): 0.46 mg/kg × 2
MIC [9]: 0.5 µg/mL
MIC [10]: 64 µg/mL
MIC [11]: 0.5 µg/mL

N--[p-(octyloxy)benzoyl]A41030A [Example 21]
MIC [1]: 1 µg/mL
MIC [2]: 2 µg/mL
ED50 (Streptococcus pneumoniae): > 10 mg/kg × 2
ED50 (Streptococcus pyogenes): > 10 mg/kg × 2
MIC [3]: 2 µg/mL
MIC [4]: -- (Compound not active at less than 128 mcg/ml)
MIC (Streptococcus Group 9960): 1 µg/mL
MIC [5]: 2 µg/mL
MIC [6]: 0.5 µg/mL
MIC [7]: 1 µg/mL
MIC [8]: 2 µg/mL
ED50 (Staphylococcus aureus): 2.19 mg/kg × 2
MIC [9]: 1 µg/mL
MIC [10]: -- (Compound not active at less than 128 mcg/ml)
MIC [11]: 2 µg/mL

N--[p-(octyloxy)benzoyl]A47934 [Example 26]
MIC [1]: 0.125 µg/mL
MIC [2]: 0.5 µg/mL
ED50 (Streptococcus pneumoniae): > 10 mg/kg × 2
ED50 (Streptococcus pyogenes): > 10 mg/kg × 2
MIC [3]: 0.5 µg/mL
MIC [4]: 8 µg/mL
MIC (Streptococcus Group 9960): 1 µg/mL
MIC [5]: 0.5 µg/mL
MIC [6]: 0.125 µg/mL
MIC [7]: 0.25 µg/mL
MIC [8]: 0.25 µg/mL
ED50 (Staphylococcus aureus): 3.6 mg/kg × 2
MIC [9]: 0.5 µg/mL
MIC [10]: 4 µg/mL
MIC [11]: 0.5 µg/mL
